Experimental data reported in patent US9006433B2, “Substituted pyrimidines” (Merck Sharp & Dohme Corp., priority 2010, dated 2015).
One block for each molecule: values may come before it.

Target: T1, PHD2 (Homo sapiens, UniProt Q9GZT9)
T1 construct: FLAG-tagged full length PHD2 expressed in and purified from baculovirus-infected Sf9 cells; FLAG; made in house; host or cells: baculovirus-infected Sf9 cells
Assay: PHD2 inhibition assay (time resolved fluorescence, HIF-1α peptide hydroxylation / VHL complex detection)
Assay type: biochemical
Details: FLAG-tagged full length PHD2; 0.2 μM 2-oxoglutarate, 0.5 μM HIF-1α peptide
Description: To each well of a 96-well plate was added 1 μL of test compound in DMSO and 20 μl of assay buffer (50 mM Iris pH 7.4/0.01% Tween-20/0.1 mg/ml bovine serum albumin/10 μM ferrous sulfate/1 mM sodium ascorbate/20 μg/ml catalase) containing 0.15 μg/ml FLAG-tagged full length PHD2 expressed in and purified from baculovirus-infected Sf9 cells. After a 30 min preincubation at room temperature, the enzymatic reactions were initiated by the addition of […] of substrates (final concentrations of 0.2 μM 2-oxoglutarate and 0.5 μM HIF-1α peptide biotinyl-DLDLEMLAPYIPMDDDFQL (SEQ ID NO:1)). After 2 hr at room temperature, the reactions were terminated and signals were developed by the addition of a 25 μL quench/detection mix to a final concentration of 1 mM ortho-phenanthroline, 0.1 mM EDTA, 0.5 nM anti-(His)6 LANCE reagent (Perkin-Elmer Life Sciences), 100 nM AF647-labeled streptavidin (Invitrogen), and 2 μg/ml (His)-6-VHL complex (S. Tan(2001) Protein Expr. Purif. 21, 224-234). The ratio of time resolved fluorescence signals at 665 and 620 nm was determined, and percent inhibition was calculated relative to an uninhibited control sample run in parallel.

T1 sequence (Q9GZT9 whole entry, species assumed): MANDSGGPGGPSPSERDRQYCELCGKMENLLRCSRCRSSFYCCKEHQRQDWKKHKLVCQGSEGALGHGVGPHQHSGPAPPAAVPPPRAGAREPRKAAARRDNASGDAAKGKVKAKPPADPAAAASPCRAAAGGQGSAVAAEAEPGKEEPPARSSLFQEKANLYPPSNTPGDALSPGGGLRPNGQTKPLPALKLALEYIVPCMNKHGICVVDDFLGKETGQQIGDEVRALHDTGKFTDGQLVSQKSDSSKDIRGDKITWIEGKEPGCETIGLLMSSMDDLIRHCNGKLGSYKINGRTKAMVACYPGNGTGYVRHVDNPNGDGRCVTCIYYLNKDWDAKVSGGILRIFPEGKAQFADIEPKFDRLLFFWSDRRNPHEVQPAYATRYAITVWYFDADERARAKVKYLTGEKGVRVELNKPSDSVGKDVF

Structure (SMILES): O=C(Nc1cnc(-n2cccn2)nc1O)Oc1ccc(-c2ccccc2)cc1 [Compound 5-17, biphenyl-4-yl 4-hydroxy-2-(1H-pyrazol-1-yl)pyrimidin-5-ylcarbamate]
IC50: 100 to 10000 nM

Structure (SMILES): O=C(Nc1cnc(-n2cccn2)nc1O)Oc1ccc2ccccc2c1 [Compound 5-18, naphthalen-2-yl 4-hydroxy-2-(1H-pyrazol-1-yl)pyrimidin-5-ylcarbamate]
IC50: 100 to 10000 nM

Structure (SMILES): Oc1nc(-n2cccn2)ncc1NC(=S)NC(c1ccccc1)c1ccccc1 [Compound 6-1, 1-benzhydryl-3-(4-hydroxy-2-(1H-pyrazol-1-yl)pyrimidin-5-yl)thiourea]
IC50: 0.5 to 20 nM

Structure (SMILES): CC(NC(=S)Nc1cnc(-n2cccn2)nc1O)c1ccccc1 (centres unmarked) [Compound 7-1, 1-(4-hydroxy-2-(1H-pyrazol-1-yl)pyrimidin-5-yl)-3-(1-phenylethyl)thiourea]
IC50: 0.5 to 20 nM

Structure (SMILES): CC(C)(NC(=S)Nc1cnc(-n2cccn2)nc1O)c1ccccc1 [Compound 8-1, 1-(4-hydroxy-2-(1H-pyrazol-1-yl)pyrimidin-5-yl)-3-(2-phenylpropan-2-yl)thiourea]
IC50: 20 to 100 nM

Structure (SMILES): O=C(OC(c1ccccc1)c1ccccc1)c1cnc(-n2cccn2)nc1O [Compound 9-1, benzhydryl 4-hydroxy-2-(1H-pyrazol-1-yl)pyrimidine-5-carboxylate]
IC50: 100 to 10000 nM

Structure (SMILES): O=C(Nc1cnc(-c2ccccn2)nc1O)C(c1ccccc1)c1ccccc1 [Compound 10-1, N-(4-hydroxy-2-(pyridin-2-yl)pyrimidin-5-yl)-2,2-diphenylacetamide]
IC50: 20 to 100 nM

Structure (SMILES): Oc1nc(-n2cccn2)ncc1-c1cnn(-c2ccccc2)c1 [Compound 11-1, 5-(1-phenyl-1H-pyrazol-4-yl)-2-(1H-pyrazol-1-yl)pyrimidin-4-ol]
IC50: 100 to 10000 nM

Structure (SMILES): Oc1nc(-n2cccn2)ncc1-c1cnn(Cc2ccccc2)c1 [Compound 11-2, 5-(1-benzyl-1H-pyrazol-4-yl)-2-(1H-pyrazol-1-yl)pyrimidin-4-ol]
IC50: 100 to 10000 nM

Other lines, results leading:

IC50: 100 to 10000 nM
Structure (SMILES): Oc1nc(-n2cccn2)ncc1-c1ccccc1 [Compound 11-3, 5-phenyl-2-(1H-pyrazol-1-yl)pyrimidin-4-ol]

IC50: 100 to 10000 nM
Structure (SMILES): O=C(Cc1cnc(-n2cccn2)nc1O)Nc1ccc(Cl)cc1 [Compound 12-1, N-(4-chlorophenyl)-2-(4-hydroxy-2-(1H-pyrazol-1-yl)pyrimidin-5-yl)acetamide]

IC50: 100 to 10000 nM
Structure (SMILES): O=C(Cc1cnc(-n2cccn2)nc1O)NC1CCCCC1 [Compound 12-2, N-cyclohexyl-2-(4-hydroxy-2-(1H-pyrazol-1-yl)pyrimidin-5-yl)acetamide]

IC50: 100 to 10000 nM
Structure (SMILES): CC(C)NC(=O)Cc1cnc(-n2cccn2)nc1O [Compound 12-3, 2-(4-hydroxy-2-(1H-pyrazol-1-yl)pyrimidin-5-yl)-N-isopropylacetamide]

IC50: 100 to 10000 nM
Structure (SMILES): Cc1ccc(S(=O)(=O)NC(=O)c2cnc(-c3cccnn3)nc2O)cc1 [Compound 13-1, 4-hydroxy-2-(pyridazin-3-yl)-N-tosylpyrimidine-5-carboxamide]
